From ChEMBL document CHEMBL4622980, “Peptide Inhibitors of Bacterial Protein Synthesis with Broad Spectrum and SbmA-Independent Bactericidal Activity against Clinical Pathogens” (J Med Chem, 2020)
Active and inactive are the calls of the source. No cut-off for these calls is given here.

Key:
[1] = system: Escherichia coli; assay: Antibacterial activity against Escherichia coli BW25113 assessed as prevention visible bacterial growth incubated for 18 hrs; format: functional; settings: BW25113, 18 h
[2] = system: Escherichia coli; assay: Bactericidal activity against Escherichia coli BW25113 assessed as prevention visible bacterial growth incubated for 18 hrs; format: functional; settings: BW25113, 18 h
[3] = system: Pseudomonas aeruginosa; assay: Antibacterial activity against Pseudomonas aeruginosa ATCC 27853 assessed as prevention visible bacterial growth incubated for 18 hrs; format: functional; settings: ATCC 27853, 18 h
[4] = system: Escherichia coli; assay: Antibacterial activity against Escherichia coli ATCC 25922 assessed as prevention visible bacterial growth incubated for 18 hrs in presence of 10% (v/v) human serum in full MH medium; format: functional; settings: ATCC 25922, 18 h
[5] = system: Escherichia coli; assay: Antibacterial activity against Escherichia coli BW25113 expressing delta sbmA mutation assessed as prevention visible bacterial growth incubated for 18 hrs; format: functional; settings: BW25113, 18 h
[6] = system: Escherichia coli; assay: Antibacterial activity against Escherichia coli ATCC 25922 assessed as prevention visible bacterial growth incubated for 18 hrs; format: functional; settings: ATCC 25922, 18 h
[7] = system: Klebsiella pneumoniae; assay: Bactericidal activity against Klebsiella pneumoniae 700603 assessed as prevention visible bacterial growth incubated for 18 hrs; format: functional; settings: Klebsiella pneumoniae, 700603, 18 h
[8] = Cytotoxicity in human MEC1 cells assessed as reduction in cell viability incubated for 20 hrs by MTT assay; format: cell-based
[9] = system: Klebsiella pneumoniae; assay: Antibacterial activity against Klebsiella pneumoniae 700603 assessed as prevention visible bacterial growth incubated for 18 hrs; format: functional; settings: Klebsiella pneumoniae, 700603, 18 h
[10] = system: Pseudomonas aeruginosa; assay: Bactericidal activity against Pseudomonas aeruginosa ATCC 27853 assessed as prevention visible bacterial growth incubated for 18 hrs; format: functional; settings: ATCC 27853, 18 h
[11] = system: Acinetobacter baumannii; assay: Antibacterial activity against Acinetobacter baumannii ATCC 19606 assessed as prevention visible bacterial growth incubated for 18 hrs; format: functional; settings: ATCC 19606 = CIP 70.34 = JCM 6841, 18 h
[12] = system: Staphylococcus aureus; assay: Bactericidal activity against Staphylococcus aureus ATCC 25923 assessed as prevention visible bacterial growth incubated for 18 hrs; format: functional; settings: ATCC 25923, 18 h
[13] = system: Acinetobacter baumannii; assay: Bactericidal activity against Acinetobacter baumannii ATCC 19606 assessed as prevention visible bacterial growth incubated for 18 hrs; format: functional; settings: ATCC 19606 = CIP 70.34 = JCM 6841, 18 h
[14] = system: Escherichia coli; assay: Antibacterial activity against Escherichia coli clinical isolates assessed as prevention visible bacterial growth incubated for 18 hrs; format: functional
[15] = system: Escherichia coli; assay: Bactericidal activity against Escherichia coli BW25113 expressing delta sbmA mutation assessed as prevention visible bacterial growth incubated for 18 hrs; format: functional; settings: BW25113, 18 h
[16] = system: Escherichia coli; assay: Bactericidal activity against Escherichia coli ATCC 25922 assessed as prevention visible bacterial growth incubated for 18 hrs; format: functional; settings: ATCC 25922, 18 h
[17] = system: Staphylococcus aureus; assay: Antibacterial activity against Staphylococcus aureus ATCC 25923 assessed as prevention visible bacterial growth incubated for 18 hrs; format: functional; settings: ATCC 25923, 18 h
[18] = system: Escherichia coli; assay: Induction of membrane permeabilization in Escherichia coli BW25113 at 1 to 2 uM incubated for 30 mins by ONPG/beta-galactosidase assay; format: functional, organism-based
[19] = system: Escherichia coli; assay: Inhibition of in-vitro transcription/translation in Escherichia coli lysates at 1 uM incubated for 1 hr by luciferase reporter gene assay relative to control; format: functional

Substance	MIC99 [1] [µM]	also measured
H-RRIRPRPPRLPRPEPR-OH	64	
H-RRIRPRPPRLPRPPPR-OH	32	
H-RRIRPRPPRLPRPRFR-OH	8	
H-RRIRPRPPRLPRPRPE-OH	64	
H-RRIRPRPPRLPRPRPG-OH	16	
H-RRIRPRPPRLPRPRPP-OH	32	
H-RRIRPRPPRLPRPRPR-OH	2 to 8	MBC [2]: 4 µM; MIC99 [3]: > 64 µM; MIC [4]: 1 µM; MIC99 [5]: 16 µM; MIC99 [6]: 1 µM; MBC [7]: 64 µM; CC50 at 20 h [8]: > 64 µM; MIC99 [9]: 4 µM; MBC [10]: > 64 µM; MIC99 [11]: 32 µM; MBC [12]: > 64 µM; MBC [13]: > 64 µM; MIC99 [14]: > 1 µM; MBC [15]: 64 µM; MBC [16]: 2 µM; MIC99 [17]: > 64 µM; Activity [18]: inactive
H-RRIRPRPPRLPRPRRR-OH	16	
H-RRIRPRPPRLPRPRSR-OH	16	
H-RRIRPRPPRLPRPSPR-OH	32	
H-RRIRPRPPRLPRRRPR-OH	8	
H-RRIRPRPPRLPSPRPR-OH	16	
H-RRIRPRPPRLPWPRPR-OH	8	
H-RRIRPRPPRLRRPRPR-OH	16	
H-RRIRPRPPRRPRPRPR-OH	32	
H-RRIRPRPPSLPRPRPR-OH	32	
H-RRIRPRPPWLPRPRPR-OH	4	
H-RRIRPRPRRLPRPRPR-OH	16	
H-RRIRPRPSRLPRPRPR-OH	16	
H-RRIRPRRPRLPRPRPR-OH	8	
H-RRIRPRWPRLPRPRPR-OH	4	
H-RRIRPSPPRLPRPRPR-OH	32	
H-RRIRSRPPRLPRPRPR-OH	16	
H-RRSRPRPPRLPRPRPR-OH	16	
H-RWIRPRPPRLPRPRPR-OH	8	
H-SRIRPRPPRLPRPRPR-OH	16	
H-WRIRPRPPRLPRWRPR-OH	2	MBC [2]: 4 µM; MIC99 [3]: > 64 µM; MIC [4]: 2 µM; inhibition [19]: Active; MIC99 [5]: 16 µM; MIC99 [6]: 1.5 µM; MBC [7]: 32 µM; CC50 at 20 h [8]: > 64 µM; MIC99 [9]: 8 µM; MBC [10]: > 64 µM; MIC99 [11]: 32 µM; MBC [12]: > 64 µM; MBC [13]: 64 µM; MIC99 [14]: > 1 µM; MBC [15]: 32 µM; MBC [16]: 2 µM; MIC99 [17]: > 64 µM; Activity [18]: inactive

Further lines, with some results ahead:

MIC99 [1] [µM]	Substance	also measured
64	H-RRIRPRPPRLPRERPR-OH	
8	H-RRIRPRPPRLPRFRPR-OH	
16	H-RRIRPRPPRLPRGRPR-OH	
32	H-RRIRPRPPRLPRPAPR-OH	
8	H-RRIRPRPPRLPRPFPR-OH	
32	H-RRIRPRPPRLPRPGPR-OH	
8	H-RRIRPRPPRLPRPRAR-OH	
32	H-RRIRPRPPRLPRPRER-OH	
16	H-RRIRPRPPRLPRPRGR-OH	
16	H-RRIRPRPPRLPRPRPA-OH	
8	H-RRIRPRPPRLPRPRPF-OH	
16	H-RRIRPRPPRLPRPRPS-OH	
8	H-RRIRPRPPRLPRPRPW-OH	
4	H-RRIRPRPPRLPRPWPR-OH	
16	H-RRIRPRPPRLPRSRPR-OH	
2	H-RRIRPRPPRLPRWRPR-OH	

MIC99 [1] [µM]	Substance	also measured
32	H-RRIRPRPPRLSRPRPR-OH	
8	H-RRIRPRPPRLWRPRPR-OH	
64	H-RRIRPRPPRPPRPRPR-OH	
32	H-RRIRPRPPRSPRPRPR-OH	
16	H-RRIRPRPPRWPRPRPR-OH	
4	H-RRIRPRPWRLPRPRPR-OH	
16	H-RRIRPRSPRLPRPRPR-OH	
8	H-RRIRPWPPRLPRPRPR-OH	
8	H-RRIRRRPPRLPRPRPR-OH	
4	H-RRIRWRPPRLPRPRPR-OH	
32	H-RRISPRPPRLPRPRPR-OH	
8	H-RRIWPRPPRLPRPRPR-OH	
8	H-RRRRPRPPRLPRPRPR-OH	
4	H-RRWRPRPPRLPRPRPR-OH	
16	H-RSIRPRPPRLPRPRPR-OH	
